Among the data in US20210139477A1, “ALK5 INHIBITORS, CONJUGATES, AND USES THEREOF” (Silverback Therapeutics, Inc., priority 2019, published 2021) are EC50 values, retold here.

This assay deals with TGFb/SMAD Signaling Pathway SBE reporter cell line. The assay can be described thus: TGFb reporter assay (TGFb/SMAD Signaling Pathway SBE luciferase reporter cell line). Type of assay: cell-based. Conditions: 5-6 h preincubation, then TGFb, 18 h, luciferase luminescence. The protocol: TGFβ/SMAD Signaling Pathway SBE reporter cell line was obtained from BPS Bioscience. Cells were passed, expanded, and stored in liquid nitrogen as per the supplier's instructions with the exception that growth media is changed to DMEM-C with Geneticin (DMEM supplemented with 10% fetal bovine serum, 1×NEAA, 1 mM Pyruvate, 2 mM glutamine, 50 μg/mL penicillin, 50 U/mL streptomycin and 400 μg/mL of Geneticin). The assay media was MEM supplemented with 0.5% fetal bovine serum, 1×NEAA, 1 mM Pyruvate, 50 μg/mL penicillin and 50 U/mL streptomycin.
TGFb/SMAD Signaling Pathway SBE reporter cell line was obtained from BPS Bioscience. Cells were passed/expanded/stored in liquid nitrogen per supplier's instruction with the exception that growth media was changed to DMEM-C with Geneticin (DMEM supplemented with 10% fetal bovine serum, IX NEAA, 1 mM Pyruvate, 2 mM glutamine, 50 μg/mL penicillin, 50 U/mL streptomycin and 400 ug/mL of Geneticin). The assay media was MEM supplemented with 0.5% fetal bovine serum, IX NEAA, 1 mM Pyruvate, 50 μg/mL penicillin and 50 U/mL streptomycin.
Reporter cells were harvested from the tissue culture flasks by incubation in small quantity of Versene at room temperature for three to five minutes after the media in the flask was removed and cells rinsed with PBS. Cells were counted and diluted in the assay media at 0.8×10^6 cells/mL then 50 uL/well were added to 96-well assay plate. Test samples (at desired concentrations diluted in assay media) were added to assay plate containing the 50 uL/well of cells (or media only), 50 uL per well, and incubated for 5-6 hours at 37° C. in a 5% CO2 humidified incubator. After that time, 15 uL of TGFb diluted to 12.5 ng/mL in the assay media was added to the plate. Controls included TGFb titration (from 25 to 0 ng/mL) without inhibitors, and media only (without cells, inhibitor or TGFb). Plates were incubated at 37° C. in a […] humidified incubator for 18 h. Luciferase substrate solution was subsequently added at 75 uL per well, incubated in dark with shaking at room temperature for 10 min, and luminescence was measured using a luminometer.

A word on the EC50: it is the concentration giving half of the maximal effect. Low values mean greater potency, high ones weaker potency. As to `Cc1cccc(-c2nc(CNCc3ccccc3C)[nH]c2-c2ccc3nccnc3c2)n1` [Compound 86], the concentration for a half-maximal effect (EC50) is 0.1 to 10 nM. The same measure for `Cc1cccc(-c2nc(CNCCc3c(F)cccc3F)[nH]c2-c2ccc3nccnc3c2)n1` [Compound 82]: 0.1 to 10 nM. For `Cc1cccc(-c2nc(CNCc3ccccc3)[nH]c2-c2ccc3ncccc3n2)n1` [Compound 73], the EC50 is 100 to 1000 nM.

In the case of `Cc1cccc(-c2nc(CNCc3ccccc3C(O)C(F)(F)F)[nH]c2-c2ccc3ncnn3c2)n1` (stereo not shown) [Compound 28], the EC50 was in the range of 0.1 to 10 nM. The same measure for `Cc1cccc(-c2nc(CNCc3cccc(-c4ccccc4)c3C)[nH]c2-c2ccc3ncnn3c2)n1` [Compound 49]: 10 to 100 nM; for `Cc1cccc(-c2nc(CNCc3ccccc3F)[nH]c2-c2ccc3ncnn3c2)n1` [Compound 18]: 0.1 to 10 nM; for `Cc1cccc(-c2nc(CNCc3ccccc3C3CCCCC3)[nH]c2-c2ccc3ncnn3c2)n1` [Compound 43]: 100 to 1000 nM. Turning to `Cc1cccc(-c2nc(CNCc3ccccc3C)[nH]c2-c2ccc3ncnn3c2)n1` [Compound 21], the concentration for a half-maximal effect (EC50) was 0.1 to 10 nM.

`Cc1cccc(-c2nc(CNCCN(C)c3ccccc3)[nH]c2-c2ccc3nccnc3c2)n1` [Compound 88]: the EC50 lay within 0.1 to 10 nM. `Cc1cccc(-c2nc(CNCc3c(Cl)cccc3Cl)[nH]c2-c2ccc3ncnn3c2)n1` [Compound 6] came in with an EC50 of 0.1 to 10 nM. As to `Cc1cccc(-c2nc(CNCc3ccccc3-c3ccc(F)cc3)[nH]c2-c2ccc3ncnn3c2)n1` [Compound 35], the EC50 lay within 0.1 to 10 nM. `Cc1cccc(-c2nc(CNCc3ccccc3-c3ccccc3)[nH]c2-c2ccnc3ccccc23)n1` [Compound 69] had an EC50 of 100 to 1000 nM. With `COC(=O)[C@H](NCc1nc(-c2cccc(C)n2)c(-c2ccc3ncnn3c2)[nH]1)c1ccccc1` [Compound 15] the figure was 100 to 1000 nM. With `Cc1cccc(-c2nc(CNCc3cccc(C)c3-c3ccccc3)[nH]c2-c2ccc3ncnn3c2)n1` [Compound 48] the figure was 10 to 100 nM.

Take `Cc1cccc(-c2nc(CNCc3ccccc3-c3ccncc3)[nH]c2-c2ccc3ncnn3c2)n1` [Compound 42]: the EC50 was in the range of 10 to 100 nM. With `Cc1cccc(-c2nc(CNCc3ccccc3-c3ccccc3)[nH]c2-c2ccc3nccnc3c2)n1` [Compound 72] the figure was 10 to 100 nM; with `Cc1cccc(-c2nc(CNCCCc3ccccc3)[nH]c2-c2ccc3ncnn3c2)n1` [Compound 64], 0.1 to 10 nM; with `Cc1cccc(-c2nc(CNCc3ccccc3-c3cccc(CN)c3)[nH]c2-c2ccc3ncnn3c2)n1` [Compound 33], 100 to 1000 nM. The compound `Cc1cccc(-c2nc(CNCc3cccc(Oc4ccncc4)c3)[nH]c2-c2ccc3ncnn3c2)n1` [Compound 58] returned a concentration for a half-maximal effect (EC50) of 10 to 100 nM. With `Cc1cccc(-c2nc(CNCc3ccccc3)[nH]c2-c2ccccn2)n1` [Compound 75] the figure was 100 to 1000 nM.

`Cc1cccc(-c2nc(CNCCc3c(F)cccc3F)[nH]c2-c2ccnc3ccccc23)n1` [Compound 79] gave a half-maximal effective concentration (EC50) of 100 to 1000 nM. `Cc1cccc(-c2nc(CNCCc3ccccc3F)[nH]c2-c2ccc3ncnn3c2)n1` [Compound 59]: the half-maximal effective concentration (EC50) is 0.1 to 10 nM. Compound `Cc1cccc(-c2nc(CNCCc3c(F)cccc3F)[nH]c2-c2ccc3c(c2)OCO3)n1` [Compound 81] displayed an EC50 of 10 to 100 nM. With `Cc1cccc(-c2nc(CNCCN(C)c3ccccc3)[nH]c2-c2ccc3ncnn3c2)n1` [Compound 67] the figure was 0.1 to 10 nM; with `Cc1cccc(-c2nc(CNCc3ccccc3Oc3ccccc3)[nH]c2-c2ccc3ncnn3c2)n1` [Compound 53], 0.1 to 10 nM; with `CCc1ccccc1CNCc1nc(-c2cccc(C)n2)c(-c2ccc3ncnn3c2)[nH]1` [Compound 22], 0.1 to 10 nM. As for `Cc1cccc(-c2nc(CNCc3ccccc3-c3cccc(F)c3)[nH]c2-c2ccc3ncnn3c2)n1` [Compound 37], the EC50 lay in the range of 10 to 100 nM. With `Cc1cccc(-c2nc(CNCCc3c(F)cccc3F)[nH]c2-c2ccc3ncnn3c2)n1` [Compound 60] the figure was 0.1 to 10 nM.
